The source made the active and inactive calls.
Assays:
[1] = NIH-3T3 fibroblast cytotoxicity, dose response, cytotoxicity control, cell-based, fluorescence, Alamar Blue, secondary assay (AID 2327); format: functional;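 further: NIH-3T3 mouse fibroblasts cultured with fluconazole at 8 µg/mL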
[2] = viability of PTEN-deleted HCT116 cells – cell-based, HCT116 PTEN knockout, dose response (AID 1047); format: functional;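 further: HCT116 colon tumor cells with PTEN knocked out; cells exposed to compound for 60 hours before readout; potency for loss of cell viability measured by luminescence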
[3] = viability of HCT116 lacking mutant beta-catenin – cell-based, human colon tumor, dose response (AID 1045); format: functional;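 further: HCT116 colon tumor cells with beta catenin knocked out; cells exposed to compound for 60 hours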
[4] = molecular target: T1, Caspase-3 (Homo sapiens, UniProt P42574); format: functional;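 further: Dose-response selectivity test against caspase-3 for candidate inhibitors of sentrin-specific proteases (SENPs)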
T1 sequence (P42574 whole entry): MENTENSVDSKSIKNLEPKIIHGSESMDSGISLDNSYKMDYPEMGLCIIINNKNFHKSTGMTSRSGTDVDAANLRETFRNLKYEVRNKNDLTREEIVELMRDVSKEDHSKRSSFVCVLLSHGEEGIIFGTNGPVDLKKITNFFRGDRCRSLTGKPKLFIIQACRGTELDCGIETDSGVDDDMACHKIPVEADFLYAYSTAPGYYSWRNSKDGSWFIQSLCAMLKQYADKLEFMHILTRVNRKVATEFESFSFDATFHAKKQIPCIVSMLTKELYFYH

[5] = molecular target: T2, Histone-lysine N-methyltransferase NSD2 (Homo sapiens, UniProt O96028); format: biochemical
T2 sequence (O96028 whole entry): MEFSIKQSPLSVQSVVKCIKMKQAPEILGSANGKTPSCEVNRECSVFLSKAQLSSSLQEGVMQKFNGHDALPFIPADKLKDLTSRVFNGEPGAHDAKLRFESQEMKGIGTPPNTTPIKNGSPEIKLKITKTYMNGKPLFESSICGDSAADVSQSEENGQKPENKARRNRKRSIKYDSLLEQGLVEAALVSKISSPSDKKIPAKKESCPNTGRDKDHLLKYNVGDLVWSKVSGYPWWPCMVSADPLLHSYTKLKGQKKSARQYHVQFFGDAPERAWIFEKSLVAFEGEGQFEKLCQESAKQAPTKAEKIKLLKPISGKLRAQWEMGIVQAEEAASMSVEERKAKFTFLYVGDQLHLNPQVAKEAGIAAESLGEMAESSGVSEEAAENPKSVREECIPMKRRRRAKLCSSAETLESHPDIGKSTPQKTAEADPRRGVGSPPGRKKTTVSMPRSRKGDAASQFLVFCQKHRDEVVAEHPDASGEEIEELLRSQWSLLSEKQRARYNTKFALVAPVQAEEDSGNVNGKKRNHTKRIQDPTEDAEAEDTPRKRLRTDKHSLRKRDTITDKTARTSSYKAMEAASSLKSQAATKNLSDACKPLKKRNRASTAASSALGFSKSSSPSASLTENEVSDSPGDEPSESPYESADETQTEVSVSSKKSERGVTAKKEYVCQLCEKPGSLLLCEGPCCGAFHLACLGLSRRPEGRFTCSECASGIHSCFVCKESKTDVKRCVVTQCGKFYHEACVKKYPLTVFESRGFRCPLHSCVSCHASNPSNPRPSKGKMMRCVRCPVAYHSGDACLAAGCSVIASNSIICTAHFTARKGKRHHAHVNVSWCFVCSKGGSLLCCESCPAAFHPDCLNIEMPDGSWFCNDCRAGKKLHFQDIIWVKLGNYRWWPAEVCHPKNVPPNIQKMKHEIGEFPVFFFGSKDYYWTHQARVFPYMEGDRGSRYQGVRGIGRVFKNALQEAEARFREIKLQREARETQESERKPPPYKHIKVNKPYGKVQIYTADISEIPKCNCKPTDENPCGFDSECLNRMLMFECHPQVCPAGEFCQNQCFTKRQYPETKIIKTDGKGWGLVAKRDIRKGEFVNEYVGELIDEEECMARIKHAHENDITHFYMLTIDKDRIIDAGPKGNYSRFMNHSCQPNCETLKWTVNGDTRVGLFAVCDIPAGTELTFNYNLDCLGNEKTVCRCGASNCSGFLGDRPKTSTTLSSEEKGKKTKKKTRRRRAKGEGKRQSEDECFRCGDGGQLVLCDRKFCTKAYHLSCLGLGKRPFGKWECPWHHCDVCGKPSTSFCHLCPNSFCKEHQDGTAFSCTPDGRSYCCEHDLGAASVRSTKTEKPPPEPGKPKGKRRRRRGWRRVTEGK

[6] = molecular target: Serine/threonine-protein phosphatase PP1-alpha catalytic subunit (Homo sapiens, UniProt P62136); experiment: inhibition of protein phosphatase 1 activity – biochemical, fluorescence, dose response (AID 2394)
Chain of Serine/threonine-protein phosphatase PP1-alpha catalytic subunit (P62136 whole entry): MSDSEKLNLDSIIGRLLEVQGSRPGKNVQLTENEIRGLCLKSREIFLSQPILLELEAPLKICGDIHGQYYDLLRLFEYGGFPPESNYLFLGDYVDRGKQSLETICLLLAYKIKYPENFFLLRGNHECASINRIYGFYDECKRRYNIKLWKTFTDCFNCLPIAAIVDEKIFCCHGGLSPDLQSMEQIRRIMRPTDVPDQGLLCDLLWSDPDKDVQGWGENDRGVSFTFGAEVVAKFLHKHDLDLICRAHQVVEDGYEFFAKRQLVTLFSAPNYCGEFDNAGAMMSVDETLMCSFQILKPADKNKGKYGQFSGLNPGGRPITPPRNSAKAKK

[7] = molecular target: Heat shock protein HSP 90-alpha (Homo sapiens, UniProt P07900); experiment: Luminescence-based dose response biochemical high throughput screening assay for inhibitors of the Heat Shock Protein 90 (HSP90). [Related pubchem assays: 1831 (Summary AID.), 1846 (Confirmation screen.), 1789 (Primary screen.)]
[8] = system: Streptococcus; experiment: GAS UMAA2166 growth inhibition – luminescence, BacTiterGlo, counter-screen for streptokinase expression inhibitor project, dose response (AID 1915); format: functional, organism-based;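 further: potency for reduction of bacterial viability or growth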
[9] = molecular target: T3, Hexokinase HKDC1 (Homo sapiens, UniProt Q2TB90); experiment: inhibition of HKDC1 glucose phosphorylation – biochemical, W721R variant, dose response (AID 504729); format: functional
T3 sequence (Q2TB90 whole entry): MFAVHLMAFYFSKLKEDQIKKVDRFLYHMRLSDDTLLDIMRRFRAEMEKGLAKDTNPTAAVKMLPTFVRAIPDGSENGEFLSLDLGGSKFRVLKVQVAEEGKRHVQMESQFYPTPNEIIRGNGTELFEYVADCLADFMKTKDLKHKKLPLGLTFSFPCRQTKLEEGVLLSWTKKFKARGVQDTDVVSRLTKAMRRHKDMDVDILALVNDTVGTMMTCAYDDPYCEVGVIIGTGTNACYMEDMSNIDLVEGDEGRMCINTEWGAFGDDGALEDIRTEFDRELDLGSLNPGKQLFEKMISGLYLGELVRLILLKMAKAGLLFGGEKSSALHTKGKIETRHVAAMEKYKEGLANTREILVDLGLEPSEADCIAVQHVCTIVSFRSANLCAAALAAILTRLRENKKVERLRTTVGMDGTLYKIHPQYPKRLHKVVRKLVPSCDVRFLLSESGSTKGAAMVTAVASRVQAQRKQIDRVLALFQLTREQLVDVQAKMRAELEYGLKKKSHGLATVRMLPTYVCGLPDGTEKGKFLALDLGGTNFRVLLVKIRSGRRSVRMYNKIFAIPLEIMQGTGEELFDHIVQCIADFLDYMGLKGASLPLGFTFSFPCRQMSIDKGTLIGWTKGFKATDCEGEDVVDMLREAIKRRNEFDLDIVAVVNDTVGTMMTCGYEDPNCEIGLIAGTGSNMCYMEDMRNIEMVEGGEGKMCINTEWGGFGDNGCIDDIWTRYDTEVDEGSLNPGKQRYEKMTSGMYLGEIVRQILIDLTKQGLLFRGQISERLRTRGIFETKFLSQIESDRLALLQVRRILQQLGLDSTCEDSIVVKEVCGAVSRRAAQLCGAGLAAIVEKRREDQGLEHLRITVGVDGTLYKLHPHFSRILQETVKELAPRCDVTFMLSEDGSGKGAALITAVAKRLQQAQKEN

| SMILES | EC50 [1] | EC50 [2] | EC50 [3] | IC50 [4] | AC50 [5] | IC50 [6] | IC50 [7] | EC50 [8] | IC50 [9] |
| --- | --- | --- | --- | --- | --- | --- | --- | --- | --- |
| Cc1ccc(NC2=CC(=O)C(=O)c3ccccc32)cc1 | 20.5 µM (active) | 6.79 µM (active) | 4.52 µM (active) | 31 µM (active) | 13 µM (active) | – | – | – | – |
| O=C(O)c1ccc(S(=O)(=O)/N=C2\C=C(Nc3ccccc3F)C(=O)c3ccccc32)cc1 | – | – | – | – | – | 15.5 µM (not active) | 0.638 µM (active) | 4.05 µM (active) | 3 µM (active) |

— ChEMBL document CHEMBL1201862, “PubChem BioAssay data set” (2004)
